Measurements taken from patent publication US7067633B2, “Targeting cellular entry, cell survival, and pathogenicity by dynein light chain 1/PIN in human cells” (Board of Regents, The University of Texas System, priority 2003, dated 2006).
Starred links: 1 amine or outer side, 2 acyl side, 3 side chain; linkers in the order of their positions; H or OH if unused. Positions of bridges follow the written chain, without caps; N, C: chain ends. Non-standard residues stand in square brackets, D forms with d. Residues, ends and D or L forms follow the SMILES beside them. Chains are numbered I, II in the order given. Actinocin(9to1) = Cc1c2oc3c(C)ccc(C(=O)[*:1])c3nc-2c(C(=O)[*:2])c(N)c1=O; NMeV = CN[C@H](C(=O)O)C(C)C; Sar = CNCC(=O)O

Legend:
SKBR-3 cells = test: Pak1-mediated macropinocytosis, vesicle formation by confocal microscopy; assay type: cell-based, human; settings: cotransfected with GFP-Pak1
Procedure: FIG. 3—Requirement of DLC1/PIN in Pak1 mediated macropinocytosis. SKBR-3 cells were cotransfected with RFP-DLC1/PIN and GFP-Pak1 (upper panel), RFP-DLC1/PIN-S88A, and GFP-Pak1 (middle panel) and RFP-DLC1-1-66, and GFP-Pak1 (lower panel). Vesicle formation and localization of GFP and RFP proteins were analyzed by confocal microscopy. Ten randomly selected fields were analyzed for each condition. The experiment was repeated twice with similar results. Quantitation of vesicles formation was done using the following scoring system. −, cells containing 0–9 vesicles; +, cells containing 10–20 vesicles; and ++, cells containing >20 vesicles.
Requirement of DLC1/PIN in Pak1 mediated macropinocytosis. […] The inventors have used the fluorescein isothiocyanate (FITC)-labeled Dextran as a marker of endocytosis using a well-established dextran beads uptake assay (Dharmawardhane et al., 2000). […]
SK-BR3 cells were cotransfected with RFP-DLC1 and GFP-Pak1 (upper panel), RFP-DLC1-S88A and GFP-Pak1 (middle panel), and RFP-DLC8-1-66 and GFP-Pak1 (bottom panel). Vesicle formation and localization of GFP and RFP proteins were analyzed by confocal microscopy. Ten randomly selected fields were analyzed for each condition. […]

NIH3T3 cells = test: UV-induced apoptosis, Lamin A/C nuclear integrity scoring; assay type: cell-based, murine
Procedure: FIGS. 5A–5C—Requirement of DLC1/PIN and Pak1 interaction in cell proliferation and survival. FIG. 5A: Equal number of cells ZR75R stable cells expressing DLC1/PIN wild type or DLC1/PIN^del88-89 mutant were plated and cell proliferation was determined by trypsinizing and counting cells using a coulter counter. Each colne was plated in triplicate and experiment was repeated twice with similar results. FIG. 5B: Cell cycle progression of DLC1/PIN wild type or mutant clones was analyzed by FACS analysis. […] For example, a smooth nuclear membrane was scored as nonapoptotic, as opposed to membrane blebbing or rupture, which was scored as apoptotic. Nuclei committed to enter mitosis were not scored in either of these groups because they were easily identified for their specific “pulverized” pattern of Lamin A/C staining. Ten randomly selected fields were analyzed for each condition. […]
DLC1/PIN regulation of cell growth and survival. […] After 10 h, apoptosis was quantitated by scoring the integrity of the nuclear membrane in cells expressing both RFP and myc tags to detect DLC/DLC1/PIN and Pak1 respectively (FIG. 5D).

DLC1 = DLC1 protein and mRNA expression; assay type: cell-based, human; settings: MCF-7 cells
Procedure: MCF-7/Tam-sen, MCF-7/TAMR1 and Ishikawa cells were treated with E2 (10^−9M) or Tam (10^−9M) for 24 h, and cell lysates were assayed for DLC1 and Pak1 protein expression. […] FIG. 21C: Effect of different periods of E2 treatment and cycloheximide (CHX) and Actinomycin D (ACTD) treatment on the ability of E2 to upregulate DLC1 mRNA in MCF-7 cells.

DLC1/PIN = test: In vivo 32P-orthophosphate labeling and immunoprecipitation of T7-DLC1/PIN; assay type: cell-based, human; settings: MCF-7 cells, EGF treatment
Procedure: FIGS. 2A–2G—MapDLC1/PINg of interaction domains of Pak1 and DLC1/PIN. FIG. 2A: Identification of Pak1 domains that interact with DLC1/PIN. GST-Pak1 fusion proteins containing wild-type (amino acids 1–545), kinase domain (amino acids 270–545), N-terminal domain (amino acids 1–132), PIX binding domain (amino acids 132–270), Nck-binding domain (amino acids 1–75), Cdc42/Rac-interacting (CRIB) domain (amino acids 52–132), and auto-inhibitory domain (amino acids 75–149) were incubated with in vitro translated DLC1/PIN (amino acids 1–89), and binding was analyzed by GST pull-down assay. FIG. 2B: Identification of the DLC1/PIN region that is involved in the binding of Pak1. GST-fusions of various lengths of DLC1/PIN were used in the GST pull-down assay using ^35S-labelled Pak1 (amino acids 1–545). FIGS. 2C–2G—Pak1 phosphorylation of DLC1/PIN. FIG. 2C: In vitro kinase assay using GST-DLC1/PIN as a substrate and purified bacterially expressed Pak1 as an enzyme. MBP was used as a positive control. FIG. 2D: ZR75R cells stably expressing T7-DLC1/PIN were labeled in vivo with ^32P-orthophosphate, serum starved, treated with EGF or HRG, and immunoprecipitated and phosphorylation status of DLC1/PIN was visualized by autoradiography. […] Cells were metabolically labeled with ^32P orthophosphate, treated with or without EGF (1 nM) and phosphorylation of T7-DLC1/PIN was analyzed by immunoprecipitation. […]

DLC1-ER interaction = test: Coimmunoprecipitation of DLC1 with ER; assay type: cell-based, human; settings: growth factor stimulation
Procedure: In vitro-translated ^35ER were incubated with GST-DLC1, and analyzed by SDS-PAGE and autoradiography. FIG. 13B: Identification of ER domains that interact with DLC1. GST-ER fusion proteins containing different deletion constructs were incubated with in vitro-translated 35S-DLC1 (aa 1-89), and binding was analyzed by GST pull-down assay. FIG. 13C: Mapping of the ER-binding region in DLC1. GST-fusions of various DLC1 deletion constructs were incubated with in vitro-translated ^35S-ER, and binding was analyzed by GST pull-down assay. […] Cell lysates from Ishikawa cells was immunoprecipitated (IP) with anti-ERá mAb and immunoblotted with anti-DLC1 or ER Abs. […] Cell lysates from MCF-7/TAM-sen or Ishikawa cells were treated with Tam (10^−9M) for 24 h, and IP with anti-ERá mAb and immunoblotted with anti-DLC1 or ER Abs. […] MCF-7/DLC1 cells were treated with or without Dox for 24 h and then treated with E2 (10^−9M) or Tam (10^−8M) for 24 h, and IP with anti-ERá mAb and immunoblotted with anti-DLC1 or ER Abs. FIG. 13G: Characterization of MCF-7 cells expressing T7-DLC1-Ser88A mutant under a tetracycline-inducible promoter. […] MCF-7/DLC1 and MCF-7/DLC1-Ser88A cells were treated with or without Dox for 24 h and cell lysates were IP with anti-ERá mAb and blotted with anti-DLC1, ERá and T7 Abs.
To this end, MCF-7 cells expressing a T7-DLC1 mutant in which Ser88 and amino acid 89 were deleted under a tet-inducible promoter (MCF-7/DLC1-1-87 mutant) were generated (FIG. 13G).

MDA-MB231 cells = test: Vesicle formation and DLC1/PIN-Pak1 colocalization after growth factor stimulation; assay type: cell-based, human; settings: serum-starved cells, 20 min

## S88A DLC1/PIN: DLC1/PIN mutant, serine 88 to alanine, lacking the Pak1 phosphorylation site
SKBR-3 cells
  Pak1-induced vesicle formation: substantially interfered
NIH3T3 cells; 10 h after UV-irradiation
  UV-induced apoptosis substantially reduced: not
NIH3T3 cells; cotransfected with catalytically active Pak1
  protection from UV-induced apoptosis by overexpression of active Pak1: unable to protect

## Cc1c2oc3c(C)ccc(C(=O)N[C@@H]4C(=O)N[C@H](C(C)C)C(=O)N5CCC[C@H]5C(=O)N(C)CC(=O)N(C)[C@@H](C(C)C)C(=O)O[C@@H]4C)c3nc-2c(C(=O)N[C@@H]2C(=O)N[C@H](C(C)C)C(=O)N3CCC[C@H]3C(=O)N(C)CC(=O)N(C)[C@@H](C(C)C)C(=O)O[C@@H]2C)c(N)c1=O [actinomycin D] (I: T[dV]P[Sar][NMeV] / II: T[dV]P[Sar][NMeV]; ester I:1-I:C, II:1-II:C; linker I:N-II:N via Actinocin(9to1))
DLC1
  estrogen-induced DLC1 expression: effectively blocked

## C[C@]12CC[C@@H]3c4ccc(O)cc4C[C@@H](CCCCCCCCC[S+]([O-])CCCC(F)(F)C(F)(F)F)[C@H]3[C@@H]1CC[C@@H]2O (stereo partly drawn) [ICI 182,780]
DLC1
  estrogen-induced DLC1 expression: effectively blocked

## EGF: epidermal growth factor, physiologic Pak1 activator
DLC1/PIN
  DLC1/PIN phosphorylation: stimulated DLC1/PIN phosphorylation
DLC1-ER interaction; tamoxifen-resistant Ishikawa cells
  interaction of DLC1 with ER: promotes
DLC1-ER interaction; tamoxifen-sensitive MCF-7 cells
  interaction of DLC1 with ER: not
MDA-MB231 cells
  vesicle-like structures with colocalization of DLC1/PIN and Pak1: substantial enhancement of vesicle-like structures
